This passage reports IC50 results from ChEMBL document CHEMBL1140269, “Amino-substituted heterocycles as isosteres of trans-cinnamides: design and synthesis of heterocyclic biaryl sulfides as potent antagonists of LFA-1/ICAM-1 binding” (Bioorg Med Chem Lett, 2005).

SMILES strings stand for the structures. Values joined by “and” are separate entries in the source; they are usually repeats but may differ in a detail not shown here. Identical values can stand only once.

In the assay the target is Intercellular adhesion molecule (ICAM-1), Integrin alpha-L/beta-2 (Homo sapiens, UniProt P05107+P20701). The assay is described as follows: Inhibitory concentration against integrin LFA-1/ICAM-1 binding complex. It counts as protein-complex assay.
Sequence of Intercellular adhesion molecule (ICAM-1), Integrin alpha-L/beta-2 (P20701 whole entry): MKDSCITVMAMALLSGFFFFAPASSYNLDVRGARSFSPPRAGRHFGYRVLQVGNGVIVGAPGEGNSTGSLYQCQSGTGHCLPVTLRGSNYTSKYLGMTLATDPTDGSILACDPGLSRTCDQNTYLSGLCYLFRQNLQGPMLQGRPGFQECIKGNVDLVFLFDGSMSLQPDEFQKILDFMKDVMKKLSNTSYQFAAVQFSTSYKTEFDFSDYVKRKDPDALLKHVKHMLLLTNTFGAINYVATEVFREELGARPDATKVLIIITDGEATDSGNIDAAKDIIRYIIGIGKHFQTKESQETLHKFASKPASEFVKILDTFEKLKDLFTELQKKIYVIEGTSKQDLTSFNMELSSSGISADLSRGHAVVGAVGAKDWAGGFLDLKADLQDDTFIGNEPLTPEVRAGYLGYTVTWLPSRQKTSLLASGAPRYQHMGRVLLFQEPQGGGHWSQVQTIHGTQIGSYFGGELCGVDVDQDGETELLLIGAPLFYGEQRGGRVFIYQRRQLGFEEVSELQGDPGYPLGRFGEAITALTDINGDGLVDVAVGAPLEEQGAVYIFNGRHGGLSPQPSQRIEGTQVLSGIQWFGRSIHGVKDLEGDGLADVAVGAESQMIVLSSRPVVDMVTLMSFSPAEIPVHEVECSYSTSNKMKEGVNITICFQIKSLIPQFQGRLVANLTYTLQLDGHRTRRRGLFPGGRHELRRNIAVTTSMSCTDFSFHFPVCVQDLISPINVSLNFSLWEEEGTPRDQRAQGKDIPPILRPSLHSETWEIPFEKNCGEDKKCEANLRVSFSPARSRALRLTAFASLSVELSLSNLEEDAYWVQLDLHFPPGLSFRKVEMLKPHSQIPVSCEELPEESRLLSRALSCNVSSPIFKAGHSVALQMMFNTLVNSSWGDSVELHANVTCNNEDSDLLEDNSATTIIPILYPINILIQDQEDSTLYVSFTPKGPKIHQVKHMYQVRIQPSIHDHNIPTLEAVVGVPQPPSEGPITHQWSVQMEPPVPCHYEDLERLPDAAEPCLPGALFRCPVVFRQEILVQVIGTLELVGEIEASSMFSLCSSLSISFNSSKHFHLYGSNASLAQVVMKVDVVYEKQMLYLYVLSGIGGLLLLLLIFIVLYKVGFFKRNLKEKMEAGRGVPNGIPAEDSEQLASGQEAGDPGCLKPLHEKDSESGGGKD
Sequence of Intercellular adhesion molecule (ICAM-1), Integrin alpha-L/beta-2 (P05362 whole entry, further chain): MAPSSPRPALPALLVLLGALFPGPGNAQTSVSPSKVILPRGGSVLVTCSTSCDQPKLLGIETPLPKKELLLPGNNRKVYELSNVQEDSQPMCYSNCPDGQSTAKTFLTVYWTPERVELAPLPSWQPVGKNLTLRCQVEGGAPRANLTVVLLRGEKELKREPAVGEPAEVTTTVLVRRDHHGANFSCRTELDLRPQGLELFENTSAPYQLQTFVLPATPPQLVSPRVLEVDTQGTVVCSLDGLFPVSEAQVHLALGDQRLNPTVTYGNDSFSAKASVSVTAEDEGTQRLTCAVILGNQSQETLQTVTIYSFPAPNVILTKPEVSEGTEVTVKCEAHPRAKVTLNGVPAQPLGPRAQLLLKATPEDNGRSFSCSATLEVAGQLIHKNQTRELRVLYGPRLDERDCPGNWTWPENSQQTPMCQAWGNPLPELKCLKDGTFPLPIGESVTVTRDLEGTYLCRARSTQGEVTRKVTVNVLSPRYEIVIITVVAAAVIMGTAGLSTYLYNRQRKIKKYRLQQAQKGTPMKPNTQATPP
Sequence of Intercellular adhesion molecule (ICAM-1), Integrin alpha-L/beta-2 (P05107 whole entry): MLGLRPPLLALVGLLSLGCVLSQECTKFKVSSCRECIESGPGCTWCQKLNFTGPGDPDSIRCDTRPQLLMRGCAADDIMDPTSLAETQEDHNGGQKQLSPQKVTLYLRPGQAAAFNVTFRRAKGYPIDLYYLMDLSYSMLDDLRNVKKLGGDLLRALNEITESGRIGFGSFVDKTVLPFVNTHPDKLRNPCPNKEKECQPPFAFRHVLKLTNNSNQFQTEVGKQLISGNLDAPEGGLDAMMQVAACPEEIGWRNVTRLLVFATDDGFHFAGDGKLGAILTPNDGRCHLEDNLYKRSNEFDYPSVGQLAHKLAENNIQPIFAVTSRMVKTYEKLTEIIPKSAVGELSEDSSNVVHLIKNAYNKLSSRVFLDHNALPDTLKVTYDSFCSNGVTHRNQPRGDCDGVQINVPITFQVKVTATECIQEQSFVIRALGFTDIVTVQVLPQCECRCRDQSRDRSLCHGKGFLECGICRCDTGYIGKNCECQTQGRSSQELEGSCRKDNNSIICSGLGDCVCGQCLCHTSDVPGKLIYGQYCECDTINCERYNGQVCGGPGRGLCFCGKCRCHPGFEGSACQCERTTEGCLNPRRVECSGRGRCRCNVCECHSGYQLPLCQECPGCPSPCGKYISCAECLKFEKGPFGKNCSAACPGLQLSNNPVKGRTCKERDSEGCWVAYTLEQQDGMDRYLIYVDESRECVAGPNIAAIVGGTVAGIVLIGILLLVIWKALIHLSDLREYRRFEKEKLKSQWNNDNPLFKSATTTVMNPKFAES
`CC(C)c1ccccc1Sc1ccc(-c2ccnc(N3CCC(CCO)CC3)c2)cc1C(F)(F)F` registered an IC50 of 0.16 µM. Compound `CCOC(=O)CN1CCN(c2cc(-c3ccc(Sc4ccccc4C(C)C)c(C(F)(F)F)c3)ncn2)CC1` displayed an IC50 of 0.42 µM. With `CC(=O)N[C@@H]1CCN(c2cc(-c3ccc(Sc4ccccc4C(C)C)c(C(F)(F)F)c3)ccn2)C1`, the IC50 was 0.062 µM. The same measure for `CCOC(=O)N1CCN(c2cc(-c3ccc(Sc4ccccc4C(C)C)c(C(F)(F)F)c3)ncn2)CC1`: 0.47 µM; for `CC(C)c1ccccc1Sc1ccc(-c2ccnc(N3C[C@H](O)C[C@H]3C(=O)O)c2)cc1C(F)(F)F`: 0.09 µM; for `COc1ccccc1Sc1ccc(-c2ccnc(N3CCC(CO)CC3)c2)cc1C(F)(F)F`: 0.08 µM.

Regarding `CC(C)c1ccccc1Sc1ccc(-c2ccnc(N3CCCC3)c2)cc1C(F)(F)F`, the IC50 is 0.25 µM.

Turning to `CC(C)c1ccccc1Sc1ccc(-c2ccnc(N3CCCCC3)c2)cc1C(F)(F)F`, the IC50 stood at 1 µM.

In turn, `CC(=O)N(C)[C@@H]1CCN(c2cc(-c3ccc(Sc4ccccc4C(C)C)c(C(F)(F)F)c3)ccn2)C1` registered a half-inhibitory concentration (IC50) of 0.112 µM.

For the compound `CC(C)c1ccccc1Sc1ccc(-c2ccnc(N3CCC[C@H]3CO)c2)cc1C(F)(F)F` (stereo in doubt; 16x), the IC50 is 0.264 µM. As for `CC(C)c1ccccc1Sc1ccc(-c2coc(N3CCOCC3)n2)cc1C(F)(F)F`, the IC50 was found to be 3.6 µM. In turn, `O=C(O)[C@@H]1CCCN1c1cc(-c2ccc(Sc3ccc4c(c3)OCCO4)c(C(F)(F)F)c2)ccn1` came in with an IC50 of 0.147 µM. The compound `CC(C)c1ccccc1Sc1ccc(-c2ccnc(N3CCC[C@H]3CO)c2)cc1C(F)(F)F` (stereo in doubt) yielded an IC50 of 0.48 µM.

Take `CC(C)c1ccccc1Sc1ccc(-c2cc(N3CCOCC3)ncn2)cc1C(F)(F)F`: the IC50 is 0.08 µM and 0.32 µM. Regarding `CC(C)c1ccccc1Sc1ccc(-c2cc(NCCCn3ccnc3)ncn2)cc1C(F)(F)F`, the half-maximal inhibitory concentration (IC50) amounted to 0.76 µM.

As to `CC(C)c1ccccc1Sc1ccc(-c2cc(N3CCC(O)CC3)ncn2)cc1C(F)(F)F`, the IC50 turned out to be 0.228 µM. In the case of `CC(=O)N1CCN(C(=O)/C=C/c2ccc(Sc3ccccc3C(C)C)c(C(F)(F)F)c2)CC1`, the concentration for half-maximal inhibition (IC50) stood at 0.06 µM.

In turn, `COc1ccccc1Sc1ccc(-c2ccnc(N3CCCC(C(=O)O)C3)c2)cc1C(F)(F)F` (centres undefined) returned an IC50 of 0.122 µM. `CC(C)c1ccccc1Sc1ccc(-c2cc(N(C)C(C)C)ncn2)cc1C(F)(F)F` came in with an IC50 of 0.74 µM.

In turn, `CC(C)c1ccccc1Sc1ccc(-c2cc(N3CCCC3CO)ncn2)cc1C(F)(F)F` (stereo in doubt) registered an IC50 of 0.48 µM. On to `CC(C)c1ccccc1Sc1ccc(-c2ccnc(N3CCC[C@H]3C(=O)O)c2)cc1C(F)(F)F`, for which the IC50 was determined as 0.026 µM. In the case of `CC(C)c1ccccc1Sc1ccc(-c2cc(N3CCC(NC(=O)OC(C)(C)C)C3)ncn2)cc1C(F)(F)F` (centres undefined), the IC50 turned out to be 0.55 µM. With `CC(C)c1ccccc1Sc1ccc(-c2cc(N3CCN(c4ccccn4)CC3)ncn2)cc1C(F)(F)F`, the IC50 was 1.27 µM. `CC(=O)N1CCN(c2cc(-c3ccc(Sc4ccccc4C(C)C)c(C(F)(F)F)c3)ccn2)CC1`: the IC50 was 0.093 µM and 0.06 µM. As to `CC(C)c1ccccc1Sc1ccc(-c2ccnc(N3CCC(O)CC3)c2)cc1C(F)(F)F`, the IC50 was 0.076 µM. For the compound `COc1ccccc1Sc1ccc(-c2ccnc(N3CCN(C=O)CC3)c2)cc1C(F)(F)F`, the IC50 was 0.186 µM. The compound `COCCCNc1nc(-c2ccc(Sc3ccccc3C(C)C)c(C(F)(F)F)c2)cs1` returned an IC50 of 10.5 µM. `CC(C)c1ccccc1Sc1ccc(-c2cc(N3CCCC3CO)ncn2)cc1C(F)(F)F` (stereo in doubt; 10w) gave an IC50 of 0.68 µM. `OCC1CCN(c2cc(-c3ccc(Sc4ccc5c(c4)OCCO5)c(C(F)(F)F)c3)ccn2)CC1` came in with a 50% inhibitory concentration (IC50) of 0.39 µM. With `COc1ccccc1Sc1ccc(-c2ccnc(N3C[C@H](O)C[C@H]3C(=O)O)c2)cc1C(F)(F)F`, the IC50 was found to be 0.214 µM. On to `CCN(C)c1cc(-c2ccc(Sc3ccccc3C(C)C)c(C(F)(F)F)c2)ncn1`, for which the IC50 was 0.68 µM.

The compound `CC(C)c1ccccc1Sc1ccc(-c2ccnc(N3CCC(C(N)=O)CC3)c2)cc1C(F)(F)F` displayed an IC50 of 0.073 µM. The same measure for `COc1ccccc1Sc1ccc(-c2ccnc(N3CCC[C@H]3C(=O)O)c2)cc1C(F)(F)F`: 0.08 µM; for `CC(C)c1ccccc1Sc1ccc(-c2ccnc(N3CCN(C=O)CC3)c2)cc1C(F)(F)F`: 0.165 µM. Take `CC(=O)N1CCN(c2cc(-c3ccc(Sc4ccc5c(c4)OCCO5)c(C(F)(F)F)c3)ccn2)CC1`: the IC50 is 0.131 µM and 0.06 µM.

As to `O=C(O)C1CCN(c2cc(-c3ccc(Sc4ccc5c(c4)OCCO5)c(C(F)(F)F)c3)ccn2)CC1`, the half-maximal inhibitory concentration (IC50) is 0.071 µM and 0.05 µM. The compound `CC(C)c1ccccc1Sc1ccc(-c2cc(N3CC[C@@H](O)C3)ncn2)cc1C(F)(F)F` displayed an IC50 of 0.158 µM. For the compound `CCCN1CCN(c2cc(-c3ccc(Sc4ccccc4OC)c(C(F)(F)F)c3)ccn2)CC1`, the IC50 came out at 0.9 µM. As for `CC(C)c1ccccc1Sc1ccc(-c2csc(NCCN3CCOCC3)n2)cc1C(F)(F)F`, the IC50 amounted to 12 µM. The same measure for `CC(=O)N(C)[C@@H]1CCN(c2cc(-c3ccc(Sc4ccc5c(c4)OCCO5)c(C(F)(F)F)c3)ccn2)C1`: 0.168 µM; for `CC(C)c1ccccc1Sc1ccc(-c2cc(N3CCCC(CO)C3)ncn2)cc1C(F)(F)F` (centres undefined): 0.23 µM; for `CC(C)c1ccccc1Sc1ccc(-c2ccnc(N3CCCC(C(=O)O)C3)c2)cc1C(F)(F)F` (stereo in doubt): 0.03 µM. Take `COc1ccccc1Sc1ccc(-c2ccnc(N3CC[C@@H](N(C)C(C)=O)C3)c2)cc1C(F)(F)F`: the IC50 is 0.088 µM. To `CC(C)c1ccccc1Sc1ccc(-c2cc(N3CCCC(C(N)=O)C3)ncn2)cc1C(F)(F)F` (centres undefined) belongs 0.34 µM.

Regarding `CC(C)c1ccccc1Sc1ccc(-c2coc(N3CCCCC3)n2)cc1C(F)(F)F`, the IC50 worked out at 15 µM. Regarding `COc1ccccc1Sc1ccc(-c2ccnc(N3CCC(C(=O)O)CC3)c2)cc1C(F)(F)F`, the IC50 came out at 0.113 µM. Take `CC(C)c1ccccc1Sc1ccc(-c2ccnc(N3CCC(C(=O)O)CC3)c2)cc1C(F)(F)F`: the IC50 was 0.042 µM and 0.05 µM. `CC(C)c1ccccc1Sc1ccc(-c2cc(N3CCC(c4nn[nH]n4)CC3)ncn2)cc1C(F)(F)F` displayed an IC50 of 0.108 µM. `COc1ccccc1Sc1ccc(-c2ccnc(N3CC[C@@H](O)C3)c2)cc1C(F)(F)F` yielded an IC50 of 0.077 µM. In turn, `CC(=O)N[C@@H]1CCN(c2cc(-c3ccc(Sc4ccc5c(c4)OCCO5)c(C(F)(F)F)c3)ccn2)C1` yielded a half-maximal inhibitory concentration (IC50) of 0.112 µM.

The compound `CCN(C(C)=O)C1CCN(c2cc(-c3ccc(Sc4ccccc4C(C)C)c(C(F)(F)F)c3)ncn2)C1` (centres undefined) returned an IC50 of 0.3 µM. In turn, `COc1ccccc1Sc1ccc(-c2ccnc(N3CCCN(C(C)=O)CC3)c2)cc1C(F)(F)F` had a concentration for half-maximal inhibition (IC50) of 0.168 µM. In turn, `OC[C@H]1CCCN1c1cc(-c2ccc(Sc3ccc4c(c3)OCCO4)c(C(F)(F)F)c2)ccn1` registered an IC50 of 0.51 µM. Regarding `CC(C)c1ccccc1Sc1ccc(-c2ccnc(N3CCC(O)C3)c2)cc1C(F)(F)F` (centres undefined), the IC50 came out at 0.093 µM. For `CCCN1CCN(c2cc(-c3ccc(Sc4ccc5c(c4)OCCO5)c(C(F)(F)F)c3)ccn2)CC1`, the IC50 amounted to 0.747 µM. `CC(C)c1ccccc1Sc1ccc(-c2ccnc(N3CC[C@@H](O)[C@H](C(=O)O)C3)c2)cc1C(F)(F)F` returned an IC50 of 0.043 µM. On to `COc1ccccc1Sc1ccc(-c2ccnc(N3CC[C@@H](NC(C)=O)C3)c2)cc1C(F)(F)F`, for which the IC50 stood at 0.088 µM.

Compound `CC1CN(c2cc(-c3ccc(Sc4ccccc4C(C)C)c(C(F)(F)F)c3)ncn2)CC(C)O1` (centres undefined) showed an IC50 of 0.49 µM.

On to `COc1ccccc1Sc1ccc(-c2ccnc(N3CCC(CCO)CC3)c2)cc1C(F)(F)F`, for which the IC50 is 0.111 µM. As to `CC(C)c1ccccc1Sc1ccc(-c2cc(N3CCC(C(N)=O)CC3)ncn2)cc1C(F)(F)F`, the 50% inhibitory concentration (IC50) came to 0.23 µM. To `COc1ccccc1Sc1ccc(-c2ccnc(N3CCC(O)CC3)c2)cc1C(F)(F)F` belongs 0.128 µM.

With `CC(=O)N1CCN(c2cc(-c3ccc(Sc4ccccc4C(C)C)c(C(F)(F)F)c3)ncn2)CC1`, the IC50 was 0.06 µM and 0.2 µM.

In the case of `COc1ccccc1Sc1ccc(-c2ccnc(N3CCC(C(N)=O)CC3)c2)cc1C(F)(F)F`, the concentration for half-maximal inhibition (IC50) is 0.14 µM. Regarding `NC(=O)C1CCN(c2cc(-c3ccc(Sc4ccc5c(c4)OCCO5)c(C(F)(F)F)c3)ccn2)CC1`, the concentration for half-maximal inhibition (IC50) was 0.14 µM. `CC(C)c1ccccc1Sc1ccc(-c2cc(N3CCC(CCO)CC3)ncn2)cc1C(F)(F)F`: the IC50 is 0.23 µM.

As for `CC(C)c1ccccc1Sc1ccc(-c2ccnc(N3CCC(c4nnn[nH]4)CC3)c2)cc1C(F)(F)F`, the IC50 came out at 0.051 µM. The compound `O=CN1CCN(c2cc(-c3ccc(Sc4ccc5c(c4)OCCO5)c(C(F)(F)F)c3)ccn2)CC1` showed an IC50 of 0.351 µM.

Compound `CC(C)c1ccccc1Sc1ccc(-c2ccnc(N3CCCC(C(=O)O)C3)c2)cc1C(F)(F)F` (stereo in doubt; 16k) yielded a 50% inhibitory concentration (IC50) of 0.043 µM. `COc1ccccc1Sc1ccc(-c2ccnc(N3CCN(C(C)=O)CC3)c2)cc1C(F)(F)F` displayed an IC50 of 0.121 µM. With `O=C(O)C1CCCN(c2cc(-c3ccc(Sc4ccc5c(c4)OCCO5)c(C(F)(F)F)c3)ccn2)C1` (stereo in doubt), the IC50 stood at 0.03 µM. Compound `O=C(O)C1CCCN(c2cc(-c3ccc(Sc4ccc5c(c4)OCCO5)c(C(F)(F)F)c3)ccn2)C1` (stereo in doubt; 18L) displayed a 50% inhibitory concentration (IC50) of 0.076 µM. To `COc1ccccc1Sc1ccc(-c2ccnc(N3CCC[C@@H]3CO)c2)cc1C(F)(F)F` belongs 0.331 µM; to `CCN(CC)C(=O)C1CCCN(c2cc(-c3ccc(Sc4ccccc4C(C)C)c(C(F)(F)F)c3)ncn2)C1` (centres undefined), 0.62 µM; to `OCCC1CCN(c2cc(-c3ccc(Sc4ccc5c(c4)OCCO5)c(C(F)(F)F)c3)ccn2)CC1`, 0.132 µM.

Consider `CC(C)c1ccccc1Sc1ccc(-c2cc(N3CCC(C(=O)O)CC3)ncn2)cc1C(F)(F)F`, for which the IC50 stood at 0.12 µM.

With `CC(C)c1ccccc1Sc1ccc(-c2ccnc(N3CCC(CO)CC3)c2)cc1C(F)(F)F`, the IC50 turned out to be 0.16 µM. `O=C(O)[C@@H]1C[C@@H](O)CN1c1cc(-c2ccc(Sc3ccc4c(c3)OCCO4)c(C(F)(F)F)c2)ccn1` gave an IC50 of 0.192 µM. In turn, `OC1CCN(c2cc(-c3ccc(Sc4ccc5c(c4)OCCO5)c(C(F)(F)F)c3)ccn2)CC1` displayed an IC50 of 0.3 µM. As to `O[C@@H]1CCN(c2cc(-c3ccc(Sc4ccc5c(c4)OCCO5)c(C(F)(F)F)c3)ccn2)C1`, the IC50 was found to be 0.126 µM.
